Assay results taken from patent US20250332149A1, “PIPERIDINE COMPOUNDS AND PHARMACEUTICAL COMPOSITIONS” (Lumos Pharma, Inc., priority 2024, published 2025).
Like-named read-outs stand apart in the source and are kept apart here.

Assay: Phase 1 study Part 1: plasma PK and relative bioavailability of LUM-201 tablets vs capsule
Assay type: in vivo, human
Conditions: for decrease of DNCmax as compared to the 90 mg tablet dose, fasted: statistically significant; for Tmax / AUC(0-inf) / AUC(0-t) / Cmax / half-life: human, plasma
Excerpt: This study in healthy adult subjects was designed to establish the pharmacokinetic (PK) and pharmacodynamic (PD) profiles for the orally administered test product (coated mini-tablets in a capsule) and reference product (mini-tablet) to evaluate relative bioavailability in Part 1 and to evaluate the food effect on the bioavailability of test product (capsule only) in Part 2.
This was a single center, open-label, randomized, Phase 1 study in healthy adult subjects. This study consisted of 2 parts: Part 1 was a 4-sequence, 4-treatment, 4 Treatment Periods, crossover study to determine the relative bioavailability of current tablets to new capsule formulations of LUM-201; Part 2 was a 2-sequence, 2-treatment, 2 Treatment Periods, crossover study to evaluate the food effect on the bioavailability of the new capsule formulation of LUM-201. An individual subject was allowed to participate in only 1 part (Part 1 or Part 2) of the study. Forty subjects were planned and enrolled in this study. • Part 1: A total of 28 subjects were planned and enrolled in Part 1. Part 1 consisted of 4 sequences, each having 4 Treatment Periods enrolling 7 subjects (1:1:1:1 ratio). During Treatment Periods 1 through 4, each subject received 4 single oral doses of LUM-201 drug product in a randomized, crossover order. • Part 2: A total of 12 subjects were planned and enrolled in Part 2. Part 2 consisted of 2 sequences, each having 2 Treatment Periods enrolling 6 subjects (1:1 ratio). Each subject received a single oral dose of LUM-201 at each Treatment Period. During Treatment Periods 1 and 2, each subject received 2 single oral doses of LUM-201 in a randomized, crossover order. • On Day 1 of Treatment Period 1, subjects were administered the assigned treatment (A or B) as randomized, followed by a washout of at least 3 days between Treatment Periods 1 and 2. Subjects stayed in-house (not discharged) between the Treatment Periods. • Treatment A was dosed at 85.3 mg capsule formulation of LUM-201 (intact capsule consumed unopened) consumed while subject was in a fasted state with 240 mL of water. • Treatment B was dosed at 85.3 mg capsule formulation of LUM-201 (intact capsule consumed unopened) consumed 30 minutes after start of a high-fat meal with 240 mL of water. • Subjects were discharged from the study center on the morning of Day 3 of Treatment Period 2 after the scheduled study assessments had been completed.
• Treatment A (reference): five 18 mg oral tablets of LUM-201 were administered under fasted state with 240 mL of water. • Treatment B (test): a single 85.3 mg dose of oral capsule formulation of LUM-201 was administered as a whole capsule under fasted state with 240 mL of water. • Treatment C (test): a single 85.3 mg dose of oral capsule formulation of LUM-201 was administered by dosing capsule contents (dry) under fasted state with 240 mL of water. • Treatment D (test): a single 85.3 mg dose of oral capsule formulation of LUM-201 was mixed (capsule contents) with banana puree (2 teaspoons), followed by 240 mL of water and was ingested within 5 minutes under fasted state (Note: Banana Puree, single serve cup was used [118.3 mL]). […]

[1] = Part 1, Treatment D (test): 85.3 mg capsule contents in banana puree, oral, fasted
[2] = Part 1, Treatment D (test): 85.3 mg capsule contents in banana puree, oral, fasted, ANOVA
[3] = test Treatment B (85.3 mg whole capsule, fasted) to reference Treatment A (90 mg tablets, fasted)
[4] = test Treatment C (85.3 mg capsule contents in dosing cup, fasted) to reference Treatment A (90 mg tablets, fasted)
[5] = test Treatment D (85.3 mg capsule contents in banana puree) to reference Treatment A (90 mg tablets, fasted)

For `CC(C)(N)C(=O)N[C@H](COCc1ccccc1)C(=O)N1CCC2(CC1)CN(S(C)(=O)=O)c1ccccc12` [LUM-201, N-[1(R)-[(1,2-dihydro-1-methanesulfonylspiro[3H-indole-3,4′-piperdin]-yl)carbonyl]-2-(phenylmethyloxy)ethyl]-2-amino-2-methylpropanamide methanesulfonate], the “DNAUC0-last, Geometric Mean” value [1] was 6.276 ng·h/mL/mg, the “DNCmax, Arithmetic Mean” value [1] was 1.422 ng/mL/mg and the “DNCmax, Geometric Mean” value [1] was 1.087 ng/mL/mg. For the same compound, the “t1/2, Geometric Mean” value [1] was 8.09 h, the “tlag, Median” value [1] was 0 h and the “tlast, Median” value [1] was 48.02 h. The λz, Arithmetic Mean [1] was 0.0872 h⁻¹, the λz, Geometric Mean [1] was 0.0856 h⁻¹ and the “DNAUC0-inf, GLS Mean” value [2] was 6.38 ng·h/mL/mg. For the same compound, the “DNAUC0-last, GLS Mean” value [2] was 6.26 ng·h/mL/mg, the “DNCmax, GLS Mean” value [2] was 1.08 ng/mL/mg and the “decrease of DNCmax as compared to the 90 mg tablet dose, fasted” value (“decrease of DNCmax” for short) (Treatment B: 85.3 mg whole capsule, fasted) was 14.1%. For the same compound, the “decrease of DNCmax” value (Treatment C: 85.3 mg capsule contents in a dosing cup, fasted) was 20.4%, the “decrease of DNCmax” value (Treatment D: 85.3 mg capsule contents in banana puree) was 14.4% and the Tmax (oral, Part 1, post-dose, Treatments A to D, read-out: median tmax, range over all four treatments) was 0.782 to 1.23 h. The AUC(0-inf) (po, 85.3 mg, Part 1, Treatment B (test): 85.3 mg whole capsule, oral, fasted, read-out: AUC0-inf, Arithmetic Mean) was 566 ng·h/mL, the AUC(0-inf) (po, 85.3 mg, Part 1, Treatment B (test): 85.3 mg whole capsule, oral, fasted, read-out: AUC0-inf, Geometric Mean) was 512 ng·h/mL and the AUC(0-t) (po, 85.3 mg, Part 1, Treatment B (test): 85.3 mg whole capsule, oral, fasted, read-out: AUC0-last, Arithmetic Mean) was 557 ng·h/mL. The AUC(0-t) (po, 85.3 mg, Part 1, Treatment B (test): 85.3 mg whole capsule, oral, fasted, read-out: AUC0-last, Geometric Mean) was 504 ng·h/mL, the Cmax (po, 85.3 mg, Part 1, Treatment B (test): 85.3 mg whole capsule, oral, fasted, read-out: Cmax, Arithmetic Mean) was 115 ng/mL and the Cmax (po, 85.3 mg, Part 1, Treatment B (test): 85.3 mg whole capsule, oral, fasted, read-out: Cmax, Geometric Mean) was 93.2 ng/mL. For the same compound, the half-life (po, 85.3 mg, Part 1, Treatment B (test): 85.3 mg whole capsule, oral, fasted, read-out: t1/2, Arithmetic Mean (converted)) was 491 min, the half-life (po, 85.3 mg, Part 1, Treatment B (test): 85.3 mg whole capsule, oral, fasted, read-out: t1/2, Geometric Mean (converted)) was 483 min and the Tmax (po, 85.3 mg, Part 1, Treatment B (test): 85.3 mg whole capsule, oral, fasted, read-out: tmax, Median) was 1.23 h. For the same compound, the AUC(0-inf) (po, 85.3 mg, Part 1, Treatment C (test): 85.3 mg capsule contents (dry), oral, fasted, read-out: AUC0-inf, Arithmetic Mean) was 583 ng·h/mL, the AUC(0-inf) (po, 85.3 mg, Part 1, Treatment C (test): 85.3 mg capsule contents (dry), oral, fasted, read-out: AUC0-inf, Geometric Mean) was 534 ng·h/mL and the AUC(0-t) (po, 85.3 mg, Part 1, Treatment C (test): 85.3 mg capsule contents (dry), oral, fasted, read-out: AUC0-last, Arithmetic Mean) was 573 ng·h/mL. It also gave an AUC(0-t) (po, 85.3 mg, Part 1, Treatment C (test): 85.3 mg capsule contents (dry), oral, fasted, read-out: AUC0-last, Geometric Mean) of 524 ng·h/mL, a Cmax (po, 85.3 mg, Part 1, Treatment C (test): 85.3 mg capsule contents (dry), oral, fasted, read-out: Cmax, Arithmetic Mean) of 98.9 ng/mL and a Cmax (po, 85.3 mg, Part 1, Treatment C (test): 85.3 mg capsule contents (dry), oral, fasted, read-out: Cmax, Geometric Mean) of 86.5 ng/mL. The half-life (po, 85.3 mg, Part 1, Treatment C (test): 85.3 mg capsule contents (dry), oral, fasted, read-out: t1/2, Arithmetic Mean (converted)) was 515 min, the half-life (po, 85.3 mg, Part 1, Treatment C (test): 85.3 mg capsule contents (dry), oral, fasted, read-out: t1/2, Geometric Mean (converted)) was 508 min and the Tmax (po, 85.3 mg, Part 1, Treatment C (test): 85.3 mg capsule contents (dry), oral, fasted, read-out: tmax, Median) was 1.12 h. The AUC(0-inf) (po, 85.3 mg, Part 1, Treatment D (test): 85.3 mg capsule contents in banana puree, oral, fasted, read-out: AUC0-inf, Arithmetic Mean) was 629 ng·h/mL, the AUC(0-inf) (po, 85.3 mg, Part 1, Treatment D (test): 85.3 mg capsule contents in banana puree, oral, fasted, read-out: AUC0-inf, Geometric Mean) was 546 ng·h/mL and the AUC(0-t) (po, 85.3 mg, Part 1, Treatment D (test): 85.3 mg capsule contents in banana puree, oral, fasted, read-out: AUC0-last, Arithmetic Mean) was 619 ng·h/mL. For the same compound, the AUC(0-t) (po, 85.3 mg, Part 1, Treatment D (test): 85.3 mg capsule contents in banana puree, oral, fasted, read-out: AUC0-last, Geometric Mean) was 535 ng·h/mL, the Cmax (po, 85.3 mg, Part 1, Treatment D (test): 85.3 mg capsule contents in banana puree, oral, fasted, read-out: Cmax, Arithmetic Mean) was 121 ng/mL and the Cmax (po, 85.3 mg, Part 1, Treatment D (test): 85.3 mg capsule contents in banana puree, oral, fasted, read-out: Cmax, Geometric Mean) was 92.7 ng/mL. It also gave a half-life (po, 85.3 mg, Part 1, Treatment D (test): 85.3 mg capsule contents in banana puree, oral, fasted, read-out: t1/2, Arithmetic Mean (converted)) of 494 min, a half-life (po, 85.3 mg, Part 1, Treatment D (test): 85.3 mg capsule contents in banana puree, oral, fasted, read-out: t1/2, Geometric Mean (converted)) of 486 min and a Tmax (po, 85.3 mg, Part 1, Treatment D (test): 85.3 mg capsule contents in banana puree, oral, fasted, read-out: tmax, Median) of 1.03 h. It also gave an AUC(0-inf) (po, 90 mg, Part 1, Treatment A (reference): five 18 mg tablets (90 mg), oral, fasted, read-out: AUC0-inf, Arithmetic Mean) of 630 ng·h/mL, an AUC(0-inf) (po, 90 mg, Part 1, Treatment A (reference): five 18 mg tablets (90 mg), oral, fasted, read-out: AUC0-inf, Geometric Mean) of 562 ng·h/mL and an AUC(0-t) (po, 90 mg, Part 1, Treatment A (reference): five 18 mg tablets (90 mg), oral, fasted, read-out: AUC0-last, Arithmetic Mean) of 620 ng·h/mL. For the same compound, the AUC(0-t) (po, 90 mg, Part 1, Treatment A (reference): five 18 mg tablets (90 mg), oral, fasted, read-out: AUC0-last, Geometric Mean) was 552 ng·h/mL, the Cmax (po, 90 mg, Part 1, Treatment A (reference): five 18 mg tablets (90 mg), oral, fasted, read-out: Cmax, Arithmetic Mean) was 132 ng/mL and the Cmax (po, 90 mg, Part 1, Treatment A (reference): five 18 mg tablets (90 mg), oral, fasted, read-out: Cmax, Geometric Mean) was 114 ng/mL. It also gave a half-life (po, 90 mg, Part 1, Treatment A (reference): five 18 mg tablets (90 mg), oral, fasted, read-out: t1/2, Arithmetic Mean (converted)) of 477 min, a half-life (po, 90 mg, Part 1, Treatment A (reference): five 18 mg tablets (90 mg), oral, fasted, read-out: t1/2, Geometric Mean (converted)) of 470 min and a Tmax (po, 90 mg, Part 1, Treatment A (reference): five 18 mg tablets (90 mg), oral, fasted, read-out: tmax, Median) of 0.782 h. The “DNAUC0-inf, Geo LSM Ratio %” value [3] was 95.50%, the “DNAUC0-last, Geo LSM Ratio %” value [3] was 95.50% and the “DNCmax, Geo LSM Ratio %” value [3] was 85.90%. The “DNAUC0-inf, Geo LSM Ratio %” value [4] was 99.50%, the “DNAUC0-last, Geo LSM Ratio %” value [4] was 99.40% and the “DNCmax, Geo LSM Ratio %” value [4] was 79.60%. For the same compound, the “DNAUC0-inf, Geo LSM Ratio %” value [5] was 102.20%, the “DNAUC0-last, Geo LSM Ratio %” value [5] was 102.00% and the “DNCmax, Geo LSM Ratio %” value [5] was 85.60%.
